Test results taken from PubChem BioAssay AID330 (DTP/NCI, 2004).
Where “and” joins values, the source holds several entries; their conditions need not be identical. Equal values may be shown once. Toxic doses and inconclusive results are not listed.

Test system: P388 leukemia ip, CD2F1 mice, survival T/C
Assay: NCI In Vivo Anticancer Drug Screen. Data for tumor model P388 Leukemia (intraperitoneal) in CD2F1 (CDF1) mice
Settings: endpoint: median survival time, higher = longer survival
Outline: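 Mice carrying the transplanted tumor received test compound or vehicle. Survival was recorded in each group, and the value is the treated-group measurement divided by that of the vehicle-treated control group.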

[1] = dose: 100.0 mg/kg/injection, schedule: Q01DX009 (ip), vehicle: saline
[2] = dose: 200.0 mg/kg/injection, schedule: Q01DX009 (ip), vehicle: saline
[3] = dose: 50.0 mg/kg/injection, schedule: Q01DX009 (ip), vehicle: saline with Tween-80
[4] = dose: 100.0 mg/kg/injection, schedule: Q01DX009 (ip), vehicle: saline with Tween-80
[5] = dose: 200.0 mg/kg/injection, schedule: Q01DX009 (ip), vehicle: saline with Tween-80
[6] = dose: 25.0 mg/kg/injection, schedule: Q01DX005 (ip), vehicle: Klucel (hydroxypropylcellulose) (HPC)
[7] = dose: 50.0 mg/kg/injection, schedule: Q01DX005 (ip), vehicle: Klucel (hydroxypropylcellulose) (HPC)
[8] = dose: 100.0 mg/kg/injection, schedule: Q01DX005 (ip), vehicle: Klucel (hydroxypropylcellulose) (HPC)
[9] = dose: 200.0 mg/kg/injection, schedule: Q01DX005 (ip), vehicle: Klucel (hydroxypropylcellulose) (HPC)
[10] = dose: 50.0 mg/kg/injection, schedule: Q01DX005 (ip), vehicle: saline with Tween-80
[11] = dose: 100.0 mg/kg/injection, schedule: Q01DX005 (ip), vehicle: saline with Tween-80
[12] = dose: 200.0 mg/kg/injection, schedule: Q01DX005 (ip), vehicle: saline with Tween-80

Structure (SMILES): C=C1C(=O)OC2CC3(C)C(CCC(C)=O)C3CC12 (centres undefined)
- T/C (dose: 50.0 mg/kg/injection, schedule: Q01DX009 (ip), vehicle: saline): 96 % of control
- T/C [1]: 94 % of control
- T/C [2]: 98 % of control

Structure (SMILES): Clc1ccc2c(Cl)ncnc2c1
- T/C [3]: 104 % of control
- T/C [4]: 100 % of control
- T/C [5]: 90 % of control

Structure (SMILES): CCCCC[CH2][Sn]([CH2]C)([CH2]C)[O]C(C)=O
- T/C (dose: 0.5 mg/kg/injection, schedule: Q01DX009 (ip), vehicle: saline with Tween-80): 109 % of control
- T/C (dose: 1.0 mg/kg/injection, schedule: Q01DX009 (ip), vehicle: saline with Tween-80): 113 % of control
- T/C (dose: 2.0 mg/kg/injection, schedule: Q01DX009 (ip), vehicle: saline with Tween-80): 109 % of control

Structure (SMILES): CNC(=O)OCCN(CCOC(=O)NC)C(=O)N1c2ccccc2Sc2ccccc21
- T/C (dose: 12.5 mg/kg/injection, schedule: Q01DX009 (ip), vehicle: saline with Tween-80): 94 % of control
- T/C (dose: 25.0 mg/kg/injection, schedule: Q01DX009 (ip), vehicle: saline with Tween-80): 98 % of control
- T/C [3]: 91 % of control
- T/C [4]: 100 % of control
- T/C [5]: 100 % of control

Structure (SMILES): COc1ccc(/C=C/C(C)=N/NC(N)=S)cc1
- T/C (dose: 6.0 mg/kg/injection, schedule: Q01DX005 (ip), vehicle: Klucel + Tween-80): 113 % of control
- T/C (dose: 12.0 mg/kg/injection, schedule: Q01DX005 (ip), vehicle: Klucel + Tween-80): 104 % of control

Structure (SMILES): CC1=NCCCN(CCN(C)C)CCCN=C(C)C2CCCC1[N-]2.[Ni+2].[O-][Cl+3]([O-])([O-])O
- T/C (dose: 6.25 mg/kg/injection, schedule: Q01DX001 (ip), vehicle: saline): 100 % of control
- T/C (dose: 12.5 mg/kg/injection, schedule: Q01DX001 (ip), vehicle: saline): 100 % of control
- T/C (dose: 25.0 mg/kg/injection, schedule: Q01DX001 (ip), vehicle: saline): 100 % of control and 102 % of control

Structure (SMILES): CN1C(=O)[C@@H]2OCCOCCO[C@H]3C(=O)N(C)C(=O)[C@@H]3OCCOCCO[C@H]2C1=O
- T/C [6]: 112 % of control
- T/C [7]: 106 % of control
- T/C [8]: 87 % of control
- T/C [9]: 96 % of control

Structure (SMILES): CCCOc1cc2c(cc1C(C)c1ccc(OC)c(C)c1)OCO2 (centres undefined)
- T/C (dose: 60.0 mg/kg/injection, schedule: Q01DX005 (ip), vehicle: saline + Tween-80 + alcohol): 97 % of control
- T/C (dose: 120.0 mg/kg/injection, schedule: Q01DX005 (ip), vehicle: saline + Tween-80 + alcohol): 109 % of control
- T/C (dose: 240.0 mg/kg/injection, schedule: Q01DX005 (ip), vehicle: saline + Tween-80 + alcohol): 108 % of control

Structure (SMILES): CCCCCCCCCCCC(=O)NC(=O)N1CCOCC1
- T/C (dose: 100.0 mg/kg/injection, schedule: Q01DX001 (ip), vehicle: saline with Tween-80): 95 % of control
- T/C (dose: 200.0 mg/kg/injection, schedule: Q01DX001 (ip), vehicle: saline with Tween-80): 100 % of control
- T/C (dose: 400.0 mg/kg/injection, schedule: Q01DX001 (ip), vehicle: saline with Tween-80): 100 % of control

Structure (SMILES): COc1nc(C(Br)Br)c([N+](=O)[O-])c(N2CCOCC2)n1
- T/C [6]: 109 % of control
- T/C [7]: 101 % of control
- T/C [8]: 87 % of control

Structure (SMILES): Nc1cc(N)n(N)c(=S)n1
- T/C (dose: 25.0 mg/kg/injection, schedule: Q01DX009 (ip), vehicle: Klucel (hydroxypropylcellulose) (HPC)): 103 % of control
- T/C (dose: 50.0 mg/kg/injection, schedule: Q01DX009 (ip), vehicle: Klucel (hydroxypropylcellulose) (HPC)): 100 % of control
- T/C (dose: 50.0 mg/kg/injection, schedule: Q04DX003 (ip), vehicle: saline with Tween-80): 104 % of control
- T/C (dose: 100.0 mg/kg/injection, schedule: Q01DX009 (ip), vehicle: Klucel (hydroxypropylcellulose) (HPC)): 110 % of control
- T/C (dose: 100.0 mg/kg/injection, schedule: Q04DX003 (ip), vehicle: saline with Tween-80): 103 % of control
- T/C (dose: 200.0 mg/kg/injection, schedule: Q01DX009 (ip), vehicle: Klucel (hydroxypropylcellulose) (HPC)): 108 % of control
- T/C (dose: 200.0 mg/kg/injection, schedule: Q04DX003 (ip), vehicle: saline with Tween-80): 99 % of control
- T/C (dose: 400.0 mg/kg/injection, schedule: Q04DX003 (ip), vehicle: saline with Tween-80): 100 % of control

Structure (SMILES): OCCCCCOCCOCCOCCOCCOCCCCCO
- T/C [10]: 101 % of control
- T/C [11]: 101 % of control
- T/C [12]: 96 % of control

Structure (SMILES): CCOC(=O)C1(O)C(=O)ON=C1c1ccccc1 (centres undefined)
- T/C [7]: 100 % of control
- T/C [8]: 104 % of control
- T/C [9]: 107 % of control

Structure (SMILES): CC(=O)Nc1cc2cccnc2sc1=O
- T/C [6]: 98 % of control
- T/C [7]: 91 % of control
- T/C [8]: 89 % of control and 94 % of control
- T/C [9]: 96 % of control

Structure (SMILES): O=C1C=CC(=O)N1c1ccccc1[N+](=O)[O-]
- T/C (dose: 6.0 mg/kg/injection, schedule: Q01DX009 (ip), vehicle: saline with Tween-80): 91 % of control

Structure (SMILES): O=C(Nc1ccccc1)Nc1nncs1
- T/C (dose: 1.56 mg/kg/injection, schedule: Q01DX009 (ip), vehicle: distilled water + Tween-80): 104 % of control
- T/C (dose: 3.13 mg/kg/injection, schedule: Q01DX009 (ip), vehicle: distilled water + Tween-80): 109 % of control
- T/C (dose: 6.25 mg/kg/injection, schedule: Q01DX009 (ip), vehicle: distilled water + Tween-80): 103 % of control
- T/C (dose: 12.5 mg/kg/injection, schedule: Q01DX009 (ip), vehicle: distilled water + Tween-80): 104 % of control
- T/C (dose: 25.0 mg/kg/injection, schedule: Q01DX009 (ip), vehicle: distilled water + Tween-80): 104 % of control

Structure (SMILES): COc1cc2cc(c1Cl)N(C)C(=O)CC(OC(=O)C(C)N(C)C(=O)C(C)C)C1(C)OC1C(C)C1CC(O)(NC(=O)O1)C(OC)/C=C/C=C(C)C2OC (centres undefined)
- T/C (dose: 4.0 micrograms/kg/injection, schedule: Q01DX009 (ip), vehicle: Klucel (hydroxypropylcellulose) (HPC)): 157 % of control and 163 % of control
- T/C (dose: 4.0 micrograms/kg/injection, schedule: Q01DX009 (ip), vehicle: distilled water + alcohol): 108 % of control
- T/C (dose: 8.0 micrograms/kg/injection, schedule: Q01DX009 (ip), vehicle: Klucel (hydroxypropylcellulose) (HPC)): 168 % of control
- T/C (dose: 8.0 micrograms/kg/injection, schedule: Q01DX009 (ip), vehicle: distilled water + alcohol): 108 % of control and 115 % of control
- T/C (dose: 15.5 micrograms/kg/injection, schedule: Q01DX009 (ip), vehicle: none): 157 % of control
- T/C (dose: 16.0 micrograms/kg/injection, schedule: Q01DX009 (ip), vehicle: Klucel (hydroxypropylcellulose) (HPC)): 154 % of control
- T/C (dose: 16.0 micrograms/kg/injection, schedule: Q01DX009 (ip), vehicle: distilled water + alcohol): 100 % of control and 123 % of control
- T/C (dose: 31.0 micrograms/kg/injection, schedule: Q01DX009 (ip), vehicle: none): 150 % of control
- T/C (dose: 32.0 micrograms/kg/injection, schedule: Q01DX009 (ip), vehicle: distilled water + alcohol): 100 % of control
- T/C (dose: 64.0 micrograms/kg/injection, schedule: Q01DX009 (ip), vehicle: Klucel (hydroxypropylcellulose) (HPC)): 91 % of control
- T/C (dose: 64.0 micrograms/kg/injection, schedule: Q01DX009 (ip), vehicle: distilled water + alcohol): 100 % of control
- T/C (dose: 128.0 micrograms/kg/injection, schedule: Q01DX009 (ip), vehicle: distilled water + alcohol): 106 % of control

Structure (SMILES): CC(=O)c1c(O)cc2c(c1O)C1CC(C)(CCC1=C(C)C)O2 (centres undefined)
- T/C (dose: 6.25 mg/kg/injection, schedule: Q01DX009 (ip), vehicle: saline): 105 % of control
- T/C (dose: 12.5 mg/kg/injection, schedule: Q01DX009 (ip), vehicle: saline): 105 % of control
- T/C (dose: 25.0 mg/kg/injection, schedule: Q01DX009 (ip), vehicle: saline): 107 % of control
- T/C [1]: 90 % of control
- T/C [2]: 89 % of control

Structure (SMILES): COc1ccc2c(c1)CN(CCc1ccccc1)CO2
- T/C [10]: 101 % of control
- T/C [11]: 101 % of control
- T/C [12]: 97 % of control

Structure (SMILES): Nc1ccc(S(=O)(=O)c2ccc(NCNc3ccc(S(=O)(=O)c4ccc(N)cc4)cc3)cc2)cc1
- T/C [4]: 94 % of control
- T/C [5]: 91 % of control
- T/C (dose: 400.0 mg/kg/injection, schedule: Q01DX009 (ip), vehicle: saline with Tween-80): 94 % of control

Structure (SMILES): Cc1cc(C(=O)NCCc2ccc(S(=O)(=O)NC(=O)NCC3CC4CCC3C4)cc2)no1 (centres undefined)
- T/C (dose: 50.0 mg/kg/injection, schedule: Q01DX001 (ip), vehicle: Klucel (hydroxypropylcellulose) (HPC)): 106 % of control
- T/C (dose: 100.0 mg/kg/injection, schedule: Q01DX001 (ip), vehicle: Klucel (hydroxypropylcellulose) (HPC)): 97 % of control
- T/C (dose: 200.0 mg/kg/injection, schedule: Q01DX001 (ip), vehicle: Klucel (hydroxypropylcellulose) (HPC)): 94 % of control

Structure (SMILES): COc1cccc(-c2nnc(-c3nc[nH]c3C)o2)c1
- T/C (dose: 100.0 mg/kg/injection, schedule: Q04DX002 (ip), vehicle: Klucel (hydroxypropylcellulose) (HPC)): 100 % of control
- T/C (dose: 200.0 mg/kg/injection, schedule: Q04DX002 (ip), vehicle: Klucel (hydroxypropylcellulose) (HPC)): 95 % of control
